Experimental findings from patent US9963451B2, “Fused ring pyrimidine compound and pest control agent containing the same” (Mitsui Chemicals Agro, Inc., priority 2013, dated 2018) are described below.

Holding throughout (type): in vivo
In assay [1] the test system is Laodelphax striatellus. Kind of assay: Test Example 14: insecticidal test against Laodelphax striatellus (spray on young rice plant, comparison with Reference Examples 3 and 4). The conditions noted are these: after 6 days. The method, then: (§1) Insecticidal Test Against Laodelphax striatellus
A young rice plant (breed: Koshihikari) was sprayed with a chemical solution which has been diluted to a pre-determined concentration followed by air drying. Then, it was added to a glass test tube (diameter of 3 cm and height of 10 cm) added with water, together with ten Laodelphax striatellus larvae (3-stage), and then the tube was covered with a cap. The number of dead insects was determined after 6 days and the insect death ratio was calculated. There were two series, i.e., 10 insects per group.
Meanwhile, as a comparative compound, Reference Example 3 disclosed in the pamphlet of International Publication No. 2013/144088 and Reference Example 4 with C═O position different from the present compound were used.

For assay [2], the system named is Nilaparvata lugens. Kind of assay: Test Example 3: insecticidal test against Nilaparvata lugens (spray on young rice plant). The conditions noted are these: after 6 days. The method, then: Insecticidal Test Against Nilaparvata lugens
2.5 ml of acetone solution prepared to have the test compound at the pre-determined concentration described in the following Table 28 was sprayed to young rice plant followed by air drying. Then, it was added to a glass bottle (diameter of 3 cm and height of 13 cm) added with water. Ten sensitive Nilaparvata lugens (3-stage) were released therein, and then the bottle was covered with a cap. After keeping them in an incubator at 25° C., the numbers of living insects and dead insects were determined after 6 days (two series). Meanwhile, as a comparative compound, imidacloprid was used.

The subject of assay [3] is Laodelphax striatellus. Put plainly: whole plant or invertebrate. The conditions noted are these: Laodelphax striatellus, in Oryza sativa, 144 h; 3 ppm, after 6 days; read-out: Insect death ratio (%). As to the method: as §1
A chemical solution diluted to have a pre-determined concentration was sprayed to young rice plant (breed: Koshihikari) followed by air drying. Then, it was added to a glass test tube (diameter of 3 cm and height of 10 cm) added with water together with ten 3-stage larvae of Laodelphax striatellus. The tube was then covered. The number of living insects was determined after 6 days and the dead insect ratio was calculated. There were two series, i.e., 10 insects per group. Meanwhile, in Table 29, when combination of two types of test chemicals are used (i.e., A and B), the combination of the two types was described as A+B, and in the concentration column (ppm), it was described as concentration of A+concentration of B.

For assay [4], the system named is Chilo suppressalis. Kind of assay: Test Example 10: insecticidal test against Chilo suppressalis (rice stem dip, single and combined chemicals). The conditions noted are these: Chilo suppressalis, 144 h; 100 ppm, after 6 days; read-out: Insect death ratio (%). As to the method: Insecticidal Test Against Chilo suppressalis
A stem part was cut from a rice plant (breed: Koshihikari) cultivated in water and it was immersed in a chemical solution which has been diluted to have a pre-determined concentration. After air drying, it was put into a 9 cm polyethylene cup having a water-wetted filter paper laid on the bottom thereof, and 3-stage larvae of Chilo suppressalis were released and covered. They were left to stand in an incubator at 25° C., and the numbers of living insects and dead insects were examined after 6 days. There were two series, i.e., 5 insects per group. Meanwhile, in Table 30, when combination of two types of test chemicals are used (i.e., A and B), the combination of the two types was described as A+B, and in the concentration column (ppm), it was described as concentration of A+concentration of B.

In assay [5] the test system is Pyricularia oryzae. Kind of assay: whole plant or invertebrate. The conditions noted are these: Pyricularia oryzae, 168 h, read-out: Rice blast control value.
The test system of assay [6] is Myzus persicae. Kind of assay: Test Example 12: insecticidal test against Myzus persicae (leaf spray on young white radish plant, single and combined chemicals). The conditions noted are these: after 5 days. As to the method:
Insecticidal Test Against Myzus persicae
A chemical solution which has been diluted to have a pre-determined concentration was sprayed on a leaf part of young white radish plant having 1-stage larvae Myzus persicae present thereon. After air drying, they were left to stand in an incubator at 25° C. and the numbers of living insects and dead insects were examined after 5 days (2 series). Meanwhile, in Table 32, when combination of two types of test chemicals are used (i.e., A and B), the combination of the two types was described as A+B, and in the concentration column (ppm), it was described as concentration of A+concentration of B.

The test system of assay [7] is Nilaparvata lugens. Put plainly: Test Example 3: insecticidal test against Nilaparvata lugens (spray on young rice plant). The conditions noted are these: after 6 days. This is another data set of the same source.
For assay [8], the system named is Nilaparvata lugens. Put plainly: Test Example 13: insecticidal test against Nilaparvata lugens using paddy field rice cultivating box (granule treatment). The conditions noted are these: 2 g a.i./box granules. As to the method: Insecticidal Test Against Nilaparvata lugens Using Paddy Field Rice Cultivating Box
A rice plant (breed: Koshihikari) cultivated in cultivating box was treated with granules with a pre-determined chemical amount, and it was transplanted in two pots, i.e., four plants per 1/5000a pot. Twenty-two days after the treatment, 10 female adults of Nilaparvata lugens were released and the young plants were covered with a mesh. Then, the insect death ratio was determined after 5 days. In addition, the number of the next generation larvae was determined after 22 days. There were two series. Meanwhile, in Table 33, when combination of two types of test chemicals (i.e., A and B), the combination of the two types was described as A+B, and in the chemical amount column (g a.i./box), it was described as chemical amount of A+chemical amount of B.

Consider `CSc1nc2n(Cc3ccc(Br)nc3)ccc(=O)n2n1` [Reference Example 3, 4-((6-bromopyridin-3-yl)methyl)-2-(methylthio)-[1,2,4]triazolo[1,5-a]pyrimidin-7(4H)-one, reference compound], for which the “Insect death ratio (%)” value in assay [1] (100 ppm) was found to be 21%.
Take `CSc1nc2n(Cc3ccc(Cl)nc3)c(=O)cc(C)n2n1` [Reference Example 4, 4-((6-chloropyridin-3-yl)methyl)-7-methyl-2-(methylthio)-[1,2,4]triazolo[1,5-a]pyrimidin-5(4H)-one, reference compound]: in assay [1] (1000 ppm), the “Insect death ratio (%)” value is recorded as 40%.
For `CSc1nc2n(Cc3ccc(Cl)nc3)c(C)cc(=O)n2n1` [compound 5, 4-((6-chloropyridin-3-yl)methyl)-5-methyl-2-(methylthio)-[1,2,4]triazolo[1,5-a]pyrimidin-7(4H)-one], the “Sensitive insect death ratio (%)” value in assay [2] (10 ppm spray) and in assay [2] (100 ppm spray) was 100% throughout. In addition, the pest or weed control at 3 ppm in assay [3] amounted to 20%. For the same compound, the pest or weed control at 100 ppm in assay [4] and in assay [5] was 0% each time. The results for the “Insect death ratio (%)” value in assay [6] (100 ppm) and in assay [1] (10 ppm) were 73% and 100%, respectively. Further, the “Resistant insect death ratio (%)” value in assay [7] (10 ppm spray) came out at 95%; in assay [7] (100 ppm spray) it was 100%.
Regarding `CSc1cc2n(Cc3ccc(Cl)nc3)c(C)cc(=O)n2n1` [compound 154, 4-((6-chloropyridin-3-yl)methyl)-5-methyl-2-(methylthio)-pyrazolo[1,5-a]pyrimidin-7(4H)-one], the “Sensitive insect death ratio (%)” value in assay [2] (10 ppm spray) and in assay [2] (100 ppm spray) was 100% in each case. Moreover, the pest or weed control at 3 ppm in assay [3] came out at 40%. The pest or weed control at 100 ppm in assay [4] and in assay [5] was 0% each time. The “Insect death ratio (%)” value in assay [6] (10 ppm) is listed as 70%; in assay [1] (10 ppm), 100%. In assay [8] (adults released 22 days after treatment, after 5 days), the “Adult insect death ratio (%)” value was 90%. For the same compound, the “Number of larvaes (number of insects)” value in assay [8] (next generation larvae after 22 days) is recorded as 0 number of insects. In addition, the “Resistant insect death ratio (%)” value in assay [7] (10 ppm spray) and in assay [7] (100 ppm spray) was 100% in each case.
